Data as given in patent US20090208620A1, “Alimentary Compositions and Methods For Metabolic Modulation” (VDF FUTURECEUTICALS, INC., priority 2003, published 2009).
Several values for one entry are separate records, joined by “and”; a condition that tells them apart may be missing. Equal entries are not always repeated.

Experiments:
Type in all cases: cell-based, mouse
activated Akt = experiment: Western immunoblot for activated (phospho-Ser473) Akt in muscle cells; conditions: for FOLD AKT ACTIVATION (OVER CONTROL): cells treated 30 minutes at 37° C
Procedure: (§1) The levels of Glut-4, activated AMPK and activated Akt were measured in mouse muscle cells C2C12 (from ATTC) and in primary culture of human skeletal muscle cells (Clonetics, Inc.) using Western immunoblotting. C2C12 cells were plated at 1.5×1-exp5 cells per mL/well (12-well plate) in standard cell culture medium (DMEM supplemented with 10% fetal bovine serum (FBS), 25 mM glucose, 20 mM Hepes, 4 mM glutamine and 2 mM sodium pyruvate. 48 hrs after the plating, medium was changed to differentiation medium (DMEM supplemented with 5 mM of glucose and 0.5% of FBS) for next 3-4 days to stimulate the formation of myotubes. Three hours before the treatment with selected agents, cells were washed with PBS and transferred to PBS supplemented with 5 mM of glucose.
(§2) Human skeletal muscle cells (HSKM) were cultured in SKBM-2 mediums provided by Clonetics. 48 hrs after cell plating, medium was changed to SKBM medium to stimulate differentiation of the cells to myotubes. When differentiated, the myotubes were transferred to PBS supplemented with 5 mM glucose for three hrs before the treatment.
(§3) Analysis of C2C12 cells for the level of activated AMPK, Akt and the level of GLUT-4 was performed in the same experimental system. The cells were treated for 30 minutes at 37° C. […] Subsequently, 20 μg per sample of sample protein was used for Western analysis using NuPage 10% Bis/Tris gels (Invitrogen). After exposure of membranes to primary and secondary antibodies AMPK, AKT or Glut-4 was detected using ECL-Plus (Amersham) following producer's instruction. Chemilumiscent signals were detected by using ChemiDoc system from Biorad. Intensity of detected signals were analyzed and measured using Quantity One software (Biorad). Alternatively, the level of phosphorylated AMPK was detected using ECL kit from Amersham and short exposure to Kodak films.
(§4) Experimental setup: Cell Culture was followed by treatment with selected contemplated compounds, which was followed by cell lysis and western blot analysis for AMPK, Akt, GLUT4, total AMPK, and total Akt. Signals were acquired accordingly.

activated AMPK = experiment: Western immunoblot for activated (phospho-Thr172) AMPK in muscle cells; conditions: for FOLD AMPK ACTIVATION (OVER CONTROL): cells treated 30 minutes at 37° C
Procedure: as §1, §2, §3, §4

GLUT-4 = experiment: Western immunoblot for GLUT-4 protein level in C2C12 cells; conditions: 2000 microM
Procedure: as §1
Analysis of C2C12 cells for the level of activated AMPK, Akt and the level of GLUT-4 was performed in the same experimental system. The cells were treated for 30 minutes at 37° C. After the treatment, the cells were washed with ice-cold PBS and lysed with 80 μl of lysis buffer/well (M-PER buffer from Pierce supplemented with protease and phosphatase inhibitor mix (Calbiochem) for 10 minutes on ice. Next, the plates were transferred to −20° C. to improve the lysis of the cells. Next cells were sonicated for 5 minutes and lysate was transferred to Eppendorf tubes and centrifuged at 14,000 rpm for 10 minutes. Supernatants were collected in fresh Eppendorf tubes and kept on ice to measure the amount of total proteins. 3 μl of each lysate was used to measure the protein concentration using standard Bradford method (Biorad). Subsequently, 20 μg per sample of sample protein was used for Western analysis using NuPage 10% Bis/Tris gels (Invitrogen). After exposure of membranes to primary and secondary antibodies AMPK, AKT or Glut-4 was detected using ECL-Plus (Amersham) following producer's instruction. Chemilumiscent signals were detected by using ChemiDoc system from Biorad. Intensity of detected signals were analyzed and measured using Quantity One software (Biorad). Alternatively, the level of phosphorylated AMPK was detected using ECL kit from Amersham and short exposure to Kodak films.
Experimental setup: Cell Culture was followed by treatment with selected contemplated compounds, which was followed by cell lysis and western blot analysis for AMPK, Akt, GLUT4, total AMPK, and total Akt. Signals were acquired accordingly. Primary antibodies used in these studies are the following: Anti-phospho-AMPK (Thr172), mouse, rabbit IgG, from Cell Signaling, #2531; Anti-phospho-Akt (Ser473), mouse, rabbit IgG, Cell Signaling, #9271; Anti-Glut-4, mouse, rabbit IgG, Calbiochem, #400064; Anti-AMPK (total), mouse, rabbit IgG, Cell Signaling, #2532; Anti-Akt (total), mouse, rabbit IgG, Cell Signaling, #9272.
The effects of kinetin, N^2-Acetyl-Guanosine and N^2-Acetyl-Guanine on GLUT-4 protein level in C2C12 cells were investigated following the same experimental design as described for AMPK and AKT. Anti-Glut-4 antibody used in this study was from Calbiochem. […] Table 3 refers to multiple independent experiments where multiple identical concentrations for the same reagents are indicated.

In the case of `NC(=O)c1ncn([C@@H]2O[C@H](CO)[C@@H](O)[C@H]2O)c1N` [AICAR, reference compound], the “FOLD AKT ACTIVATION (OVER CONTROL)” value (activated Akt; 50.0 microM) is reported as 2.20 fold and the “FOLD AKT ACTIVATION (OVER CONTROL)” value (activated Akt; 500.0 microM) is reported as 5.45 fold.

With `Nc1ncnc2c1ncn2[C@@H]1O[C@H](CO)[C@@H](O)[C@H]1O` [Adenosine] the “FOLD AMPK ACTIVATION (OVER CONTROL)” value (activated AMPK; 2.5 microM) was 1.87 fold, the “FOLD AMPK ACTIVATION (OVER CONTROL)” value (activated AMPK; 5.0 microM) was 1.64 fold and the “FOLD AMPK ACTIVATION (OVER CONTROL)” value (activated AMPK; 12.5 microM) was 1.83 fold.

For `c1ccc(CNc2ncnc3nc[nH]c23)cc1` [Benzyl-Adenine], the “FOLD AMPK ACTIVATION (OVER CONTROL)” value (activated AMPK; 0.5 microM) was 2.18 fold, the “FOLD AMPK ACTIVATION (OVER CONTROL)” value (activated AMPK; 5.0 microM) was 2.70 fold and the “FOLD AMPK ACTIVATION (OVER CONTROL)” value (activated AMPK; 50.0 microM) was 2.92 fold.

`CC(C)=CCNc1ncnc2nc[nH]c12` [Gamma, Gamma-Dimethylally-6-Aminopurine] was tested, and the “FOLD AMPK ACTIVATION (OVER CONTROL)” value (activated AMPK; 0.5 microM) was 2.82 fold, the “FOLD AMPK ACTIVATION (OVER CONTROL)” value (activated AMPK; 5.0 microM) was 2.45 fold and the “FOLD AMPK ACTIVATION (OVER CONTROL)” value (activated AMPK; 50.0 microM) was 2.11 fold. For the same compound, the “FOLD AKT ACTIVATION (OVER CONTROL)” value (activated Akt; 0.8 microM) was 1.90 fold and 3.56 fold and the “FOLD AKT ACTIVATION (OVER CONTROL)” value (activated Akt; 2.0 microM) was 1.32 fold.

`Nc1nc2c(ncn2[C@@H]2O[C@H](CO)[C@@H](O)[C@H]2O)c(=O)[nH]1` [Guanosine] was tested, and the “FOLD AMPK ACTIVATION (OVER CONTROL)” value (activated AMPK; 5.0 microM) was 3.70 fold, the “effect on AMPK activity (in words)” value (activated AMPK; no concentration stated) was “potent activators of AMPK” and the “effect on Akt activity (in words)” value (activated Akt; no concentration stated) was “potent activators of AMPK as well as Akt”.

In the case of `OC[C@H]1O[C@@H](n2cnc3c(NCc4ccco4)ncnc32)[C@H](O)[C@@H]1O` [Kinetin Riboside], the “FOLD AMPK ACTIVATION (OVER CONTROL)” value (activated AMPK; 3.0 microM) is reported as 12.00 fold, the “FOLD AKT ACTIVATION (OVER CONTROL)” value (activated Akt; 0.8 microM) is reported as 3.71 fold and the “FOLD AKT ACTIVATION (OVER CONTROL)” value (activated Akt; 2.0 microM) is reported as 5.14 fold. The “FOLD AKT ACTIVATION (OVER CONTROL)” value (activated Akt; 5.0 microM) was 3.32 fold.

`CN(C)C(=N)N=C(N)N` [Metformin, reference compound] was tested, and the “FOLD AMPK ACTIVATION (OVER CONTROL)” value (activated AMPK; 2.0 milliM) was 1.42 fold, the “FOLD AKT ACTIVATION (OVER CONTROL)” value (activated Akt; 2.0 milliM) was 2.70 fold and the “FOLD CHANGE IN GLUT-4 LEVEL (OVER CONTROL)” value (GLUT-4) was 1.50 fold.
